Measured values published in PMC8046226, “Koala cathelicidin PhciCath5 has antimicrobial activity, including against Chlamydia pecorum” (PLoS ONE, 2021).
Read-outs that look alike come from different tables or passages of the source. Residues, ends and D or L forms follow the SMILES beside them. No end group written: not given here.

Columns and labels:
[1] = system: C. pecorum MarsBar; experiment: Chlamydia pecorum antimicrobial susceptibility (elementary body inactivation, IFU/mL); format: cell-based; details: 125, 250 and 500μg/mL; less than half an order of magnitude difference in chlamydial inclusions compared with the control
Description: (§1) C. pecorum IPTaLE and MarsBar were cultured in mouse McCoy B cells, on DMEM supplemented with 10% foetal calf serum (FCS), 0.1mg/mL streptomycin and 0.05mg/mL gentamicin at 37°C in a 5% CO2 atmosphere. Cell lines were routinely tested for mycoplasma contamination every 2 months. Prior to performing antimicrobial susceptibility assays, 96-well plates were seeded with 30,000 host cells per well 24 hours prior to chlamydial infection as described previously. For the antimicrobial assays, koala cathelicidin mature peptides, PhciCath1, 2, 3, 5 and 6, were solubilized in water for cell culture with 0.01% acetic acid, and two-fold dilutions were made in sucrose-phosphate-glutamic acid (SPG) media from 1mg to 250μg/mL, in triplicate. Cathelicidin containing wells were diluted one in two with C. pecorum IPTaLE and MarsBar EBs and incubated for 2 hours at 37°C, giving a final cathelicidin concentration of 500, 250 and 125μg/mL. A negative SPG only control was included. To exclude the possibility of cathelicidin toxicity to McCoy cells, cathelicidin dilutions were removed by centrifugation and C. pecorum EBs re-suspended in DMEM supplemented with 10% FCS, 0.1mg/mL streptomycin and 0.05mg/mL gentamycin. The suspension was used to infect a McCoy B ATCC CRL-1696 cell monolayer at a Multiplicity of Infection (MOI) of 0.6 as described previously. […]

[2] = system: C. pecorum IPTaLE; experiment: as above; format: cell-based; details: 125, 250 and 500μg/mL; less than half an order of magnitude difference in chlamydial inclusions compared with the control
Description: as §1

[3] = system: MRSA (animal isolate); format: cell-based, Staphylococcus aureus; details: broth microdilution (CLSI), MH II B with magnesium and calcium cations, 35°C, 20–48 hours
Description: (§2) Antimicrobial activity was determined against a range of bacteria and fungi from humans and animals using a broth microdilution susceptibility assay according to clinical laboratory standards institute (CLSI) guidelines in 96 well polypropylene plates as described previously. Briefly, cathelicidins were dissolved in DMSO and serially diluted, in cation-adjusted Mueller Hinton Broth (MH II B) with or without 10% lysed horse blood for bacteria, and yeast nitrogen base (YNB) for fungi. Cathelicidin concentrations ranged between 64μg/mL and 0.125μg/mL in a final volume of 100μL. For all bacteria and fungi tested, ampicillin, tetracycline and fluconazole were included as positive controls, in addition to a media-only control and growth control (no inhibitor). Bacteria and fungi were sub-cultured 20–24 hours prior to the test, suspended in saline and their concentration adjusted to a 0.5 McFarland standard. Microorganisms were then diluted to a concentration of 0.5–1.0x10^6 cells/mL, with colony counts performed to confirm microorganism density, and 100μL was dispensed into the wells of the cathelicidin dilution plate. […] Antimicrobial activity was expressed as minimum inhibitory concentration (MIC), which was defined as the lowest concentration of cathelicidin preventing visible bacterial growth, relative to the no-drug control. […]

[4] = system: S. salivarius; format: cell-based
Description: (§3) Antimicrobial activity was determined against a range of bacteria and fungi from humans and animals using a broth microdilution susceptibility assay according to clinical laboratory standards institute (CLSI) guidelines in 96 well polypropylene plates as described previously. Briefly, cathelicidins were dissolved in DMSO and serially diluted, in cation-adjusted Mueller Hinton Broth (MH II B) with or without 10% lysed horse blood for bacteria, and yeast nitrogen base (YNB) for fungi. Cathelicidin concentrations ranged between 64μg/mL and 0.125μg/mL in a final volume of 100μL. For all bacteria and fungi tested, ampicillin, tetracycline and fluconazole were included as positive controls, in addition to a media-only control and growth control (no inhibitor). Bacteria and fungi were sub-cultured 20–24 hours prior to the test, suspended in saline and their concentration adjusted to a 0.5 McFarland standard. Microorganisms were then diluted to a concentration of 0.5–1.0x10^6 cells/mL, with colony counts performed to confirm microorganism density, and 100μL was dispensed into the wells of the cathelicidin dilution plate. All plates were incubated at 35°C for 20–48 hours depending on the strain. Antimicrobial activity was expressed as minimum inhibitory concentration (MIC), which was defined as the lowest concentration of cathelicidin preventing visible bacterial growth, relative to the no-drug control. The same microdilution susceptibility assay was performed using Mueller Hinton Broth without the addition of the divalent cations calcium and magnesium (MHB), to test the effect of the cations on PhciCath5 activity against the ATCC strains E. coli 25922 and S. aureus 29213.

[5] = system: P. aeruginosa ATCC27853; format: cell-based
Description: as §3

[6] = system: E. coli ATCC25922; format: cell-based
Description: as §3

[7] = system: S. aureus ATCC29213; format: cell-based
Description: as §3

[8] = system: S. lutetiensis; format: cell-based
Description: as §3

[9] = system: S. pyogenes ATCC19615; format: cell-based
Description: as §3

[10] = system: S. dysgalactiae; format: cell-based
Description: as §3

[11] = system: S. oralis; format: cell-based
Description: as §3

[12] = system: S. agalactiae ATCC12386; format: cell-based
Description: as §3

[13] = system: S. mutans; format: cell-based
Description: as §3

[14] = system: S. pneumoniae ATCC49619; format: cell-based
Description: as §3

[15] = system: C. krusei ATCC 6258; experiment: Broth microdilution susceptibility assay (MIC); format: cell-based, Candida krusei; details: broth microdilution (CLSI), yeast nitrogen base (YNB) for fungi, 35°C, 20–48 hours
Description: as §2

[16] = system: S. equi (animal isolate); experiment: Broth microdilution susceptibility assay (MIC); format: cell-based; details: broth microdilution (CLSI), MH II B with magnesium and calcium cations, 35°C, 20–48 hours
Description: as §3

[17] = system: P. aeruginosa (animal isolate); experiment: Broth microdilution susceptibility assay (MIC); format: cell-based; details: broth microdilution (CLSI), MH II B with magnesium and calcium cations, 35°C, 20–48 hours
Description: as §3

[18] = system: K. pneumoniae (animal isolate); experiment: Broth microdilution susceptibility assay (MIC); format: cell-based; details: broth microdilution (CLSI), MH II B with magnesium and calcium cations, 35°C, 20–48 hours
Description: as §3

[19] = system: L. monocytogenes (animal isolate); experiment: Broth microdilution susceptibility assay (MIC); format: cell-based; details: broth microdilution (CLSI), MH II B with magnesium and calcium cations, 35°C, 20–48 hours
Description: as §3

[20] = system: S. agalactiae (animal isolate); experiment: Broth microdilution susceptibility assay (MIC); format: cell-based; details: broth microdilution (CLSI), MH II B with magnesium and calcium cations, 35°C, 20–48 hours
Description: as §3

[21] = system: C. glabrata; experiment: Broth microdilution susceptibility assay (MIC); format: cell-based; details: broth microdilution (CLSI), yeast nitrogen base (YNB) for fungi, 35°C, 20–48 hours
Description: as §3

[22] = system: E. coli (animal isolate); experiment: Broth microdilution susceptibility assay (MIC); format: cell-based; details: broth microdilution (CLSI), MH II B with magnesium and calcium cations, 35°C, 20–48 hours
Description: as §3

[23] = system: S. aureus (animal isolate); experiment: Broth microdilution susceptibility assay (MIC); format: cell-based; details: broth microdilution (CLSI), MH II B with magnesium and calcium cations, 35°C, 20–48 hours
Description: as §3

[24] = system: P. multocida (animal isolate); experiment: Broth microdilution susceptibility assay (MIC); format: cell-based; details: broth microdilution (CLSI), MH II B with magnesium and calcium cations, 35°C, 20–48 hours
Description: as §3

[25] = system: C. albicans; experiment: Broth microdilution susceptibility assay (MIC); format: cell-based; details: broth microdilution (CLSI), yeast nitrogen base (YNB) for fungi, 35°C, 20–48 hours
Description: as §3

[26] = system: C. parapsilosis ATCC 22019; experiment: Broth microdilution susceptibility assay (MIC); format: cell-based, Candida parapsilosis; details: broth microdilution (CLSI), yeast nitrogen base (YNB) for fungi, 35°C, 20–48 hours
Description: as §2

[27] = system: C. trachomatis; details: cited from earlier work
Excerpt: Koala cathelicidin PhciCath5 inactivated C. pecorum MarsBar and IPTaLE elementary bodies (EB) and was the only peptide tested that caused biologically and statistically significant reductions in chlamydial inclusions. […] Timing of cathelicidin release from immune and epithelial cells within the host may not enable direct interaction with EB. […] Indeed, proteases secreted by this C. trachomatis neutralise LL-37 anti-chlamydial activity, thereby evading AMP attack and ensuring extracellular EB survival. ...

CC[C@H](C)[C@H](NC(=O)[C@H](CCCNC(=N)N)NC(=O)[C@H](CCCCN)NC(=O)[C@H](Cc1ccccc1)NC(=O)[C@H](CCCNC(=N)N)NC(=O)[C@H](CC(C)C)NC(=O)[C@@H]1CCCN1C(=O)[C@H](CCC(=O)O)NC(=O)[C@@H]1CCCN1C(=O)[C@@H]1CCCN1)C(=O)N[C@@H](CCCNC(=N)N)C(=O)N[C@@H](CS)C(=O)N[C@@H](CC(C)C)C(=O)N[C@@H](CC(N)=O)C(=O)NCC(=O)N[C@@H](CCCNC(=N)N)C(=O)N[C@@H](CCCCN)C(=O)N[C@@H](CS)C(=O)N[C@@H](CC(N)=O)C(=O)N[C@@H](Cc1ccc(O)cc1)C(=O)N[C@@H](Cc1c[nH]cn1)C(=O)N[C@@H](CC(N)=O)C(=O)N[C@@H](CC(C)C)C(=O)N[C@@H](CC(C)C)C(=O)N[C@@H](CC(C)C)C(=O)N[C@H](C(=O)N[C@H](C(=O)N[C@H](C(=O)N1CCC[C@H]1C(=O)N[C@@H](Cc1c[nH]cn1)C(=O)N[C@@H](Cc1c[nH]c2ccccc12)C(=O)N[C@@H](CCCNC(=N)N)C(=O)N[C@H](C(=O)N1CCC[C@H]1C(=O)N[C@@H](CCCCN)C(=O)NCC(=O)N[C@@H](CCCCN)C(=O)O)[C@@H](C)CC)C(C)C)[C@@H](C)CC)[C@@H](C)O [PhciCath3] (H-PPEPLRFKRIRCLNGRKCNYHNLLLTIVPHWRIPKGK-OH)
ineffective: activity against C. pecorum MarsBar up to 500ug/mL [1] | activity against C. pecorum IPTaLE up to 500ug/mL [2]

CC[C@H](C)[C@H](NC(=O)CNC(=O)CNC(=O)[C@H](CCCNC(=N)N)NC(=O)[C@@H](N)CCCCN)C(=O)N[C@@H](Cc1c[nH]c2ccccc12)C(=O)N[C@@H](CCCCN)C(=O)N[C@@H](CC(C)C)C(=O)N[C@H](C(=O)N[C@@H](CCCNC(=N)N)C(=O)N1CCC[C@H]1C(=O)N[C@@H](CC(C)C)C(=O)NCC(=O)N[C@@H](CCCNC(=N)N)C(=O)NCC(=O)N[C@@H](C)C(=O)NCC(=O)N[C@@H](CCCNC(=N)N)C(=O)N[C@H](C(=O)N[C@@H](CC(C)C)C(=O)N[C@@H](CCCNC(=N)N)C(=O)N[C@@H](Cc1c[nH]cn1)C(=O)N[C@@H](Cc1ccccc1)C(=O)N[C@@H](Cc1c[nH]cn1)C(=O)N[C@H](C(=O)N[C@@H](CC(=O)O)C(=O)N[C@@H](Cc1ccccc1)C(=O)N[C@@H](CS)C(=O)NCC(=O)N[C@@H](CC(N)=O)C(=O)N[C@@H](CS)C(=O)O)[C@@H](C)CC)[C@@H](C)CC)[C@@H](C)CC [PhciCath5] (H-KRGGIWKLIRPLGRGAGRILRHFHIDFCGNC-OH)
11 µg/mL: MIC (in brackets) [6] | MIC (in brackets) [7]
64 µg/mL: MIC [4] | MIC [6] | MIC [9] | MIC [12] | MIC [15] | MIC [19] | MIC [20]
32 µg/mL: MIC [26]
>64 µg/mL: MIC [5] | MIC [8] | MIC [10] | MIC [11] | MIC [13] | MIC [14] | MIC [16] | MIC [17] | MIC [18] | MIC [21] | MIC [24] | MIC [25]
8 µg/mL: MIC [23]
16 µg/mL: MIC [3] | MIC [7] | MIC [22]

PG-1: pig protegrin PG-1, a eutherian cathelicidin (RGGRLCYCRRRFCVCVGR; ends and bridges not checked; cysteine pairing not given here; UniProt P32194 131-148, looked up)
1.25 µg/mL: concentration which reduced the infectivity of C. trachomatis ([27]; single round of infection)
~100%: reduction in infectivity ([27]; treatment of extracellular EBs)
67%: reduction in infectivity ([27]; treatment of intracellular C. trachomatis)
